Experimental data published in ChEMBL document CHEMBL6103537 (J Med Chem, 2025).
The source made the active and inactive calls. The calls are words filed in the database; no cut-off is given here.

Legend:
[1] = Metabolic stability in monkey liver microsome assessed as half life measured upto 60 mins in presence of NADPH by LC-MS/MS analysis; type: ADME, Macaca mulatta; conditions: rhesus monkey, liver microsomes
[2] = Metabolic stability in human liver microsome assessed as parent compound remaining measured at 30 mins in presence of NADPH by LC-MS/MS analysis; type: ADME; conditions: liver microsomes, read-out: Stability
[3] = Stability in dog plasma assessed as half life measured upto 60 mins by LC-MS/MS analysis; type: ADME, cell-free, Canis lupus familiaris
PBMC = assay: Downregulation of STAT1 level in human PBMC cells at 5 uM incubated for 18 hrs by Western blot analysis relative to control; type: functional, cell-based
[4] = Metabolic stability in dog liver microsome assessed as parent compound remaining measured at 30 mins in presence of NADPH by LC-MS/MS analysis; type: ADME, Canis lupus familiaris; conditions: liver microsomes, read-out: Stability
[5] = Metabolic stability in rat liver microsome assessed as parent compound remaining measured at 45 mins in presence of NADPH by LC-MS/MS analysis; type: ADME; conditions: liver microsomes, read-out: Stability
[6] = target: T1, Protein cereblon/Signal transducer and transcription activator 6 (Mus musculus) (UniProt P52633+Q8C7D2); assay: In vivo PROTAC activity at STAT6/CRBN in BALB/c mouse assessed as reduction in STAT6 level in lung at 200 mg/kg, ip measured at 24 hrs by Western blot analysis; type: functional, organism-based; design: scale not given: the % may be the effect or the level left
T1 sequence (P52633 whole entry, looked up): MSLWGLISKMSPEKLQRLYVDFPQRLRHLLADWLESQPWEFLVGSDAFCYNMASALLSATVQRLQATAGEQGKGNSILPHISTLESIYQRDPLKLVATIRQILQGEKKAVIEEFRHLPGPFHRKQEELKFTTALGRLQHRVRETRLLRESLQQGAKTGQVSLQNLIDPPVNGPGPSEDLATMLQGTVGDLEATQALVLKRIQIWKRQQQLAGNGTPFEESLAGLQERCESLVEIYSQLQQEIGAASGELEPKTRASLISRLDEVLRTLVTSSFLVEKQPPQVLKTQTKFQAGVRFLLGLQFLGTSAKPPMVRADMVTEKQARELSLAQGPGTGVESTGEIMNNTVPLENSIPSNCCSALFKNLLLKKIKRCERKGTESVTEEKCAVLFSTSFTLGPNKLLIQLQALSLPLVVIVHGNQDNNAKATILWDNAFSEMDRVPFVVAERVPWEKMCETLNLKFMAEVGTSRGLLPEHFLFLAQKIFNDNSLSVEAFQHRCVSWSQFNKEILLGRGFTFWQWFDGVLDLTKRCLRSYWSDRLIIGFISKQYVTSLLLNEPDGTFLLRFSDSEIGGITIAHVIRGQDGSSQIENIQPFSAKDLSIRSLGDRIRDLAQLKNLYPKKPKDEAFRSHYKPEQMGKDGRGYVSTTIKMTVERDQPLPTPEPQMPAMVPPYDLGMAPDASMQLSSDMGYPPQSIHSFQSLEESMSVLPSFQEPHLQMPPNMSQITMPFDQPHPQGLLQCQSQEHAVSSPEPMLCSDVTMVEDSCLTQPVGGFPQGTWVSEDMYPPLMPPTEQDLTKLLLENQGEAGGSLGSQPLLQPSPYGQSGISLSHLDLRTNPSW
T1 sequence (Q8C7D2 whole entry, looked up): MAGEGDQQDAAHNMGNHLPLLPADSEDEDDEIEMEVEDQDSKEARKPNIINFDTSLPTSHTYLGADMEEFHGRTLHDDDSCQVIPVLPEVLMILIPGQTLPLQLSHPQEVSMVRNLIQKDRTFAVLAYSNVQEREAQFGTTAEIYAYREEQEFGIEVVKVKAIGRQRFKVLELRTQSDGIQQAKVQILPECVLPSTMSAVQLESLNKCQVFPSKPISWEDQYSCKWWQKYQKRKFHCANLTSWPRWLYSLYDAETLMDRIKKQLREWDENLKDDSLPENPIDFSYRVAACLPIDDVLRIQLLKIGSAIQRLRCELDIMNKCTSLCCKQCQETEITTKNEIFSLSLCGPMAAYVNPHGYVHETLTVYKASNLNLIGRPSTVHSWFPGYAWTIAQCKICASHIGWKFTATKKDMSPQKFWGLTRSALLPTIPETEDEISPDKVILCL

[7] = target: T2, Protein cereblon/Signal transducer and activator of transcription 6 (Homo sapiens, UniProt P42226+Q96SW2); assay: PROTAC activity at STAT6/CRBN in human MV4-11 cells assessed as reduction in STAT6 level at 2 uM measured upto 1200 mins in presence of […] by HiBiT bioluminescence assay; type: cell-based
T2 sequence (P42226 2-847 limits assumed): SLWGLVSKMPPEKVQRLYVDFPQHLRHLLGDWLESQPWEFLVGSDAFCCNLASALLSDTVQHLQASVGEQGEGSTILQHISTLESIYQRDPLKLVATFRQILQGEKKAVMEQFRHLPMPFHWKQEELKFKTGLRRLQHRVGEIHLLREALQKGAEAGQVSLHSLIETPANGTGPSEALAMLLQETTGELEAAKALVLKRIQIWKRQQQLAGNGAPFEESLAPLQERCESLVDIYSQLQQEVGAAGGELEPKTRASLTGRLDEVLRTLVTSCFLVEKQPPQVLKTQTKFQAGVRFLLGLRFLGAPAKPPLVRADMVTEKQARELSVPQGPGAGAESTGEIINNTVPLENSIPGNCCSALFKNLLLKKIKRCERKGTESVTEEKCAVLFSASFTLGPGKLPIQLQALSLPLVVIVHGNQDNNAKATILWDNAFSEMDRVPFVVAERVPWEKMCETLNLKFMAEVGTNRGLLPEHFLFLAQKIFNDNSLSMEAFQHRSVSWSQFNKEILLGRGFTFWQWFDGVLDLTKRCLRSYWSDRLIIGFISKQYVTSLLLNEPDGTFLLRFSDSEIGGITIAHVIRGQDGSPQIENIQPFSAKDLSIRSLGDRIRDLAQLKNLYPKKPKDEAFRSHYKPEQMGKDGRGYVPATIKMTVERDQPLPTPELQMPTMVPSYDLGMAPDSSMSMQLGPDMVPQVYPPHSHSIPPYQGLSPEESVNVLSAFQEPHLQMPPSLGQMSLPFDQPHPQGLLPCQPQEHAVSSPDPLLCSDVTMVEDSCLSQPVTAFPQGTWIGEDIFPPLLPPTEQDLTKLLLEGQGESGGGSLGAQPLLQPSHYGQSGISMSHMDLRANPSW
T2 sequence (Q96SW2 whole entry partner): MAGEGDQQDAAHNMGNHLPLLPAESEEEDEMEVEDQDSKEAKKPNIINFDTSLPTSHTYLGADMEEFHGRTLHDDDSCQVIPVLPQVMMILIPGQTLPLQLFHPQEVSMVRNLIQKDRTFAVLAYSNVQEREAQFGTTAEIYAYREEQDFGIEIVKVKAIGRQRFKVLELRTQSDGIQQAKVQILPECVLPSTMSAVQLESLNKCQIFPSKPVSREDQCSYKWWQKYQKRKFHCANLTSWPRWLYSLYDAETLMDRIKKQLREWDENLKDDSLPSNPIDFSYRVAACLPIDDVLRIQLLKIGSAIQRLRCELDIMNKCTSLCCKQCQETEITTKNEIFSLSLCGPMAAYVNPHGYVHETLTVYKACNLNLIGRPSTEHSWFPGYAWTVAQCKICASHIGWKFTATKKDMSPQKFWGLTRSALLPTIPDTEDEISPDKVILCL

[8] = Stability in dog plasma assessed as parent compound remaining measured at 120 mins by LC-MS/MS analysis; type: ADME, cell-free, Canis lupus familiaris; conditions: read-out: Stability
[9] = Metabolic stability in dog liver microsome assessed as parent compound remaining measured at 45 mins in presence of NADPH by LC-MS/MS analysis; type: ADME, Canis lupus familiaris; conditions: liver microsomes, read-out: Stability
[10] = target: T2, Protein cereblon/Signal transducer and activator of transcription 6; assay: PROTAC activity at STAT6/CRBN in human MV4-11 cells assessed as reduction in STAT6 level at 5 uM incubated for 12 hrs by Western blot analysis relative to control; type: cell-based
[11] = target: Protein cereblon/Signal transducer and activator of transcription 2 (Homo sapiens) (UniProt Q96SW2+P52630); assay: PROTAC activity at STAT2/CRBN in human PBMC cells assessed as reduction in STAT2 level at 10 uM incubated for 18 hrs by Western blot analysis relative to control; type: cell-based
Chain of Protein cereblon/Signal transducer and activator of transcription 2 (Homo sapiens) (P52630 whole entry, looked up): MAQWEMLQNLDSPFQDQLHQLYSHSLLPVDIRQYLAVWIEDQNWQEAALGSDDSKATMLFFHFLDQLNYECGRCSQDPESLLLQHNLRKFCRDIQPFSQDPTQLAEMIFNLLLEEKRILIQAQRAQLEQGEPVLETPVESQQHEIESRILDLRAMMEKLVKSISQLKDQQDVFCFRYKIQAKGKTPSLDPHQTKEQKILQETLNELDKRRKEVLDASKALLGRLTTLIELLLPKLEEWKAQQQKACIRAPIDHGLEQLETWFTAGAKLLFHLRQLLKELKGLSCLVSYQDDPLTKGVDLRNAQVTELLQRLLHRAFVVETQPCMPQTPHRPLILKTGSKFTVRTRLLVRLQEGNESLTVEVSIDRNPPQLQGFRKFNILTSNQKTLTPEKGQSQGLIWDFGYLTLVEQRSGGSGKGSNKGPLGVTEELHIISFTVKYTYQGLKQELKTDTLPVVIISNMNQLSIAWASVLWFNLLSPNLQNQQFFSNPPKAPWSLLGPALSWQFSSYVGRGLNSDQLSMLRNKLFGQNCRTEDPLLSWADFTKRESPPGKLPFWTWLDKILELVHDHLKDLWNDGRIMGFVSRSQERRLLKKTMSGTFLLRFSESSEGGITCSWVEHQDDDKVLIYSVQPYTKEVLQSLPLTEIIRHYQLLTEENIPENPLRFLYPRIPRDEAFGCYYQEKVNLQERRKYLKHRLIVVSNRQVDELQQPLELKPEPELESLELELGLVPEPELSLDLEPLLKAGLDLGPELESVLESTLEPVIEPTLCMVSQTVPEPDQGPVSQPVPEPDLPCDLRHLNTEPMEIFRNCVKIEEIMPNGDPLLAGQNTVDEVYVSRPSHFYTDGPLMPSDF
Chain of Protein cereblon/Signal transducer and activator of transcription 2 (Homo sapiens) (Q96SW2 whole entry, looked up): as the sequence (Q96SW2 whole entry partner) above

[12] = target: T2, Protein cereblon/Signal transducer and activator of transcription 6; assay: PROTAC activity at STAT6/CRBN in human PBMC cells assessed as reduction in STAT6 level at 10 uM incubated for 18 hrs by Western blot analysis relative to control; type: cell-based
[13] = Metabolic stability in monkey liver microsome assessed as parent compound remaining measured at 5 mins in presence of NADPH by LC-MS/MS analysis; type: ADME, Macaca mulatta; conditions: rhesus monkey, liver microsomes, read-out: Stability
[14] = Metabolic stability in dog liver microsome assessed as half life measured upto 60 mins in presence of NADPH by LC-MS/MS analysis; type: ADME, Canis lupus familiaris; conditions: liver microsomes
[15] = Metabolic stability in human liver microsome assessed as parent compound remaining measured at 15 mins in presence of NADPH by LC-MS/MS analysis; type: ADME; conditions: liver microsomes, read-out: Stability
[16] = Stability in human plasma assessed as parent compound remaining measured at 120 mins by LC-MS/MS analysis; type: ADME, cell-free; conditions: read-out: Stability
[17] = Stability in dog plasma assessed as parent compound remaining measured at 30 mins by LC-MS/MS analysis; type: ADME, cell-free, Canis lupus familiaris; conditions: read-out: Stability
[18] = Downregulation of EPB41L1 level in human PBMC cells at 5 uM incubated for 18 hrs by Western blot analysis relative to control; type: functional
[19] = Metabolic stability in mouse liver microsome assessed as parent compound remaining measured at 45 mins in presence of NADPH by LC-MS/MS analysis; type: ADME; conditions: liver microsomes, read-out: Stability
[20] = Stability in rat plasma assessed as parent compound remaining measured at 120 mins by LC-MS/MS analysis; type: ADME, cell-free; conditions: read-out: Stability
[21] = target: T2, Protein cereblon/Signal transducer and activator of transcription 6; assay: PROTAC activity at STAT6/CRBN in human MV4-11 cells assessed as reduction in STAT6 level at 2 uM by HiBiT bioluminescence assay; type: cell-based; conditions: time <= 1200.0 min
[22] = Metabolic stability in mouse liver microsome assessed as half life measured upto 60 mins in presence of NADPH by LC-MS/MS analysis; type: ADME; conditions: liver microsomes
[23] = Downregulation of AKR7A3 level in human PBMC cells at 5 uM incubated for 18 hrs by Western blot analysis relative to control; type: functional
[24] = target: Protein cereblon/Eukaryotic peptide chain release factor GTP-binding subunit ERF3A (Homo sapiens) (UniProt Q96SW2+P15170); assay: PROTAC activity at CRBN/GSPT1 in human Jurkat cells assessed as degradation of GSPT1 protein at 0.01 to 10 uM incubated for 20 hrs by Western blotting analysis; type: cell-based; conditions: dose 0.01-10 µM
Chain of Protein cereblon/Eukaryotic peptide chain release factor GTP-binding subunit ERF3A (Homo sapiens) (P15170 whole entry, looked up): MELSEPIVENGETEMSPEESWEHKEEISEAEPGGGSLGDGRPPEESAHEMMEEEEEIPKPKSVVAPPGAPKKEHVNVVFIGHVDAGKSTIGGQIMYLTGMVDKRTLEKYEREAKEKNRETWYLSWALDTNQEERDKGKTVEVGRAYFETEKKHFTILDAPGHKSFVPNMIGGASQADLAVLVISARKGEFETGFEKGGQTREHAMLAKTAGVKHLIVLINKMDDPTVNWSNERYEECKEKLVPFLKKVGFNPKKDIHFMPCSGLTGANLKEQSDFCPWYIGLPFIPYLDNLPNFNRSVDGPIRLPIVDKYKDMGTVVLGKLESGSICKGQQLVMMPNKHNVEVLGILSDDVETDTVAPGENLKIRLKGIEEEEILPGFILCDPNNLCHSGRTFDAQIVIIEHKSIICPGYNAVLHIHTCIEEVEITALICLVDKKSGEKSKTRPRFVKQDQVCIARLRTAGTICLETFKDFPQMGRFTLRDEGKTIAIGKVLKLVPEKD
Chain of Protein cereblon/Eukaryotic peptide chain release factor GTP-binding subunit ERF3A (Homo sapiens) (Q96SW2 whole entry, looked up): as the sequence (Q96SW2 whole entry partner) above

[25] = target: T2, Protein cereblon/Signal transducer and activator of transcription 6; assay: PROTAC activity at STAT6/CRBN in human L-1236 cells assessed as reduction in STAT6 level at 10 uM incubated for 24 hrs by Western blot analysis; type: cell-based
[26] = target: T1, Protein cereblon/Signal transducer and transcription activator 6 (Mus musculus); assay: In vivo PROTAC activity at STAT6/CRBN in BALB/c mouse assessed as reduction in STAT6 level in liver at 200 mg/kg, ip measured at 2 to 24 hrs by Western blot analysis; type: functional, organism-based; design: scale not given: the % may be the effect or the level left; conditions: time 2-24 hrs
[27] = Metabolic stability in mouse liver microsome assessed as parent compound remaining measured at 30 mins in presence of NADPH by LC-MS/MS analysis; type: ADME; conditions: liver microsomes, read-out: Stability

Work on `CC(C)(C)[C@H](NC(=O)c1cc2cc(C(F)(F)P(=O)(O)O)ccc2s1)C(=O)N1C[C@@H](OCCCCCC#Cc2cccc3c2CN(C2CCC(=O)NC2=O)C3=O)C[C@H]1C(=O)N1CCO[C@H](c2ccccc2)C1` (stereo partly drawn) yielded a half-life [1] of 1.05 h, a remaining at 0.5 h [2] of 92% and a half-life [3] greater than 2 h. For the same molecule, the Activity (PBMC) was “inactive”, the remaining at 0.5 h [4] was 95% and the remaining at 0.75 h [5] was 90%. The Activity [6] was greater than 70%, the Activity [7] was “Active” and the remaining at 2 h [8] was 67%. For the same molecule, the remaining at 0.75 h [9] was 93%, the Emax [10] was greater than 95% and the Activity [11] was “No effect”. It also gave an Emax [12] greater than 90%, a remaining at 5 min [13] of 95% and a half-life [14] greater than 2 h. It also gave a remaining at 0.25 h [15] of 98%, a remaining at 2 h [16] of 74% and a remaining at 0.5 h [17] of 75%. It also gave an Activity [18] of 60%, a remaining at 0.75 h [19] of 92% and a remaining at 2 h [20] of 67%. The Activity [21] was “Time-dependent-effect”, the half-life [22] was greater than 2 h and the Activity [23] was 51%. The Activity [24] was “No effect”, the Activity [25] was “No effect” and the Activity [26] was greater than 90%. For the same molecule, the remaining at 0.5 h [27] was 94%.
